From ChEMBL document CHEMBL3608238, “Coronaridine, an iboga type alkaloid from Tabernaemontana divaricata, inhibits the Wnt signaling pathway by decreasing β-catenin mRNA expression” (Bioorg Med Chem Lett, 2015)
The source made the active and inactive calls. The rule behind the calls is not given here.

Assays:
HCT-116 = assay: Cytotoxicity against Wnt-dependent human HCT116 cells assessed as cell viability after 24 hrs by fluorescence assay; format: functional, cell-based; details: HCT-116, 24 h
RKO = assay: Cytotoxicity against Wnt-independent human RKO cells assessed as cell viability after 24 hrs by fluorescence assay; format: cell-based
SW480 [1] = assay: Cytotoxicity against Wnt-dependent human SW480 cells assessed as cell viability after 24 hrs by fluorescence assay; format: functional, cell-based; details: SW480, 24 h
[2] = (§1) Inhibition of Wnt/beta-catenin in human STF/293 cells assessed as inhibition of TCF/beta catenin transcription after 24 hrs by SuperTOPFlash reporter gene assay; format: cell-based; details: STF/293, 24 h
STF/293 = assay: as §1; format: cell-based
[3] = Cytotoxicity against Wnt-dependent human DLD1 cells assessed as cell viability after 24 hrs by fluorescence assay; format: functional, cell-based; details: DLD-1, 24 h
HEK-293T [4] = assay: Cytotoxicity against HEK293T cells assessed as cell viability after 24 hrs by fluorescence assay; format: cell-based; details: Homo sapiens
HEK-293T [5] = assay: Inhibition of Wnt/beta-catenin in HEK293T cells assessed as inhibition of TCF/beta catenin transcription at 5 to 20 uM after 24 hrs by SuperFOPFlash reporter gene assay; format: cell-based; details: Homo sapiens
HEK293 = assay: Cytotoxicity against HEK293 cells assessed as cell viability after 24 hrs by fluorescence assay; format: cell-based; details: Homo sapiens, HEK293, 24 h
SW480 [6] = assay: Inhibition of Wnt/beta-catenin in human SW480 cells assessed as decrease in cytosolic beta-catenin level at 10 to 40 uM after 24 hrs by Western blot analysis; format: cell-based
SW480 [7] = assay: Inhibition of Wnt/beta-catenin in human SW480 cells assessed as beta-catenin phosphorylation at Ser33/Ser37/Thr40 at 10 to 40 uM after 24 hrs by Western blot analysis; format: cell-based
SW480 [8] = assay: Inhibition of Wnt/beta-catenin in human SW480 cells assessed as decrease in nuclear beta-catenin level at 10 to 40 uM after 24 hrs by Western blot analysis; format: cell-based
SW480 [9] = assay: Inhibition of Wnt/beta-catenin in human SW480 cells assessed as beta-catenin phosphorylation at Ser45 at 10 to 40 uM after 24 hrs by Western blot analysis; format: cell-based
SW480 [10] = assay: Effect on GSK3beta expression in human SW480 cells at 10 to 40 uM after 24 hrs by Western blot analysis; format: functional, cell-based
SW480 [11] = assay: Inhibition of Wnt/beta-catenin in human SW480 cells assessed as decrease in beta-catenin mRNA level at 40 uM by real time RT-PCR analysis; format: cell-based
SW480 [12] = assay: Effect on CK1alpha expression in human SW480 cells at 10 to 40 uM after 24 hrs by Western blot analysis; format: functional, cell-based
SW480 [13] = assay: Inhibition of Wnt/beta-catenin in proteasome inhibitor MG132 pretreated human SW480 cells assessed as decrease in beta-catenin level at 40 uM co-treated with MG132 for 12 hrs by Western blot analysis; format: cell-based
HEK-293T [14] = assay: Inhibition of Wnt/beta-catenin in HEK293T cells assessed as inhibition of TCF/beta catenin transcription at 10 to 40 uM after 24 hrs by SuperFOPFlash reporter gene assay; format: cell-based; details: Homo sapiens

| SMILES | IC50 (HCT-116) [µM] | IC50 (RKO) [µM] | IC50 (SW480 [1]) [µM] | IC50 [2] [µM] | inhibition (STF/293) | IC50 [3] [µM] | IC50 (HEK-293T [4]) [µM] | inhibition (HEK-293T [5]) | IC50 (HEK293) [µM] | inhibition (SW480 [6]) | inhibition (SW480 [7]) | inhibition (SW480 [8]) | inhibition (SW480 [9]) | Activity (SW480 [10]) | inhibition (SW480 [11]) | Activity (SW480 [12]) | inhibition (SW480 [13]) | inhibition (HEK-293T [14]) |
| --- | --- | --- | --- | --- | --- | --- | --- | --- | --- | --- | --- | --- | --- | --- | --- | --- | --- | --- |
| CC[C@H]1C[C@@H]2CN3CC[C@]4(O)C(=Nc5ccccc54)[C@](C(=O)OC)(C2)[C@H]13 [CORONARIDINE HYDROXYINDOLENINE] | > 40 | > 40 | > 40 | 7.3 | Dose-dependent effect | > 40 | > 40 | Active | > 40 | – | – | – | – | – | – | – | – | – |
| CC[C@H]1C[C@@H]2CN3CCc4c([nH]c5ccccc45)[C@](C(=O)OC)(C2)[C@H]13 [CORONARIDINE] | 11.6 | > 40 | 10.4 | 5.8 | Dose-dependent effect | 24.4 | > 40 | Active | 31.7 | Active | inactive | Active | inactive | inactive | Active | inactive | Active | – |
| CC[C@H]1C[C@@H]2CN3CCc4c([nH]c5cc(OC)ccc45)[C@](C(=O)OC)(C2)[C@H]13 [ISOVOACANGINE] | 24.4 | > 40 | 11.2 | 6 | Dose-dependent effect | > 40 | > 40 | Active | 35.6 | – | – | – | – | – | – | – | – | – |
| CC[C@H]1C[C@@H]2CN3CCc4c([nH]c5ccc(OC)cc45)[C@](C(=O)OC)(C2)[C@H]13 [VOACANGINE] | > 40 | > 40 | > 40 | 11.5 | Dose-dependent effect | > 40 | > 40 | – | > 40 | – | – | – | – | – | – | – | – | inactive |
